Patent US20240190887A1, “COMPOUND USED AS SHP2 INHIBITOR AND USE THEREOF” (TYK MEDICINES, INC., priority 2021, published 2024)

What was measured:
full-length SHP2 protein = molecular target: T1, full-length SHP2 protein (Homo sapiens, UniProt Q06124); assay: In vitro SHP2 enzyme activity inhibition (DiFMUP substrate, SHP2 activating peptide); assay type: biochemical; conditions: full-length SHP2 protein with activating peptide, 8 concentrations, read-out: IC50 of compounds inhibiting SHP2 enzyme activity
T1 construct: Purified full-length SHP2 protein (Kamed Bio-Tianjin); purchased Kamed Bio-Tianjin
T1 sequence (Q06124 1-593): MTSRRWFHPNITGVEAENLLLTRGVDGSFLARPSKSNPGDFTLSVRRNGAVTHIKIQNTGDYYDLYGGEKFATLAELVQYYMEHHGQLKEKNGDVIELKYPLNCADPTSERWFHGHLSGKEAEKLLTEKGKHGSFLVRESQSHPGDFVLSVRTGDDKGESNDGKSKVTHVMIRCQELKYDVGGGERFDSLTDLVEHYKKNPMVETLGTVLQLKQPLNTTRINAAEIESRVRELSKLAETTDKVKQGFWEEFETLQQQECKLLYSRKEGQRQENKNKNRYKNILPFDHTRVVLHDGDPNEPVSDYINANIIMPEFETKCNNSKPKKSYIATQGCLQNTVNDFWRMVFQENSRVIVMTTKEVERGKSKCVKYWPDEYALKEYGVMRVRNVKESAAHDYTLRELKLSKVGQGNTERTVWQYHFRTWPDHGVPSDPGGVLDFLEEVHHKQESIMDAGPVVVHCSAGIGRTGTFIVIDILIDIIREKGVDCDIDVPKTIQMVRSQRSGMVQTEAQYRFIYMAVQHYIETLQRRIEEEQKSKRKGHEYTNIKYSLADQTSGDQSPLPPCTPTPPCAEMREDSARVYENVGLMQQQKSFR
Experimental: • a) Purified full-length SHP2 protein (Kamed Bio-Tianjin) • b) SHP2 activating peptide (BPS Bioscience). • c) DiFMUP. • d) Reaction buffer (120 mM HEPES pH 7.2, 200 mM NaCl, 1 mM EDTA, 0.002% Brij35), added with 0.04% BSA after autoclave, stored at 4° C.; diluted to 1× before use, and added with 2 mM DTT.
• a) The 384-well plates were filled with 10 uL solution of compound to be tested (No. 2), 3-fold gradient dilution, totaling 8 concentrations; • b) The sample wells to be tested were added with 5 uL of […] activating peptide (No. 4, 2 uM) and 5 uL of 4×full-length SHP2 protein (0.88 nM), control wells were free of inhibitor, and blank wells were free of SHP2 activating peptide and inhibitor; • c) 384-well plate was sealed, mixed well and incubated at room temperature for 1 hr; • d) After adding 5 uL 5×DiFMUP (125 uM), 384-well plate was sealed, mixed well and incubated at room temperature for 1 hr, and then detected by En Vision;
% Inhibition=[1−(RFUsample−RFUblank)/(RFUtotal−RFUblank)]×100
Non-linear regression analysis was performed using Graphpad 8.0, and the IC50 values for each compound were obtained by fitting a curve of enzyme activity with compound concentration through the equation Y=Bottom+(Top−Bottom)/(1+10^((LogIC50−X)*Hill Slope)).

MV4-11 cells = assay: Compound activity in MV4-11 cells (72 hr, cell viability by CTG method); assay type: cell-based; conditions: Homo sapiens, 72 hr incubation
Experimental: MV4-11 cells in logarithmic growth phase were taken, prepared into cell suspension, inoculated in 96-well plates at 160 uL/well with an inoculation density of 5000 cells/well, and cultured overnight in a 37° C. cell culture incubator. A 5× solution of the compound to be tested was prepared with 4-fold gradient dilution, and a total of 8 concentrations with double duplicate wells. The solution of the compound to be tested was added into 96-well plate at 40 uL/well, and the blank and control wells were added with corresponding volume of solvent, shaken and mixed well, and then incubated in 37° C. cell incubator for 72 hr, and the cell viability was detected by CTG method.
Equation (Sample−blank)/(control−blank)*100% was used to convert raw data to inhibition rate, and the IC50 value could be obtained by curve fitting with four parameters (obtained with “log(inhibitor) vs. response—Variable slope” model in GraphPad Prism), and the results are shown in Table III. (In the table below, the following designations are used: <100 nM=A; 100-500 nM=B; >500 nM=C).

Row | Compound | IC50 (full-length SHP2 protein) | IC50 (MV4-11 cells)
1 | C[C@@H]1OCC2(CCN(c3nc4cnn(-c5ccc6cn[nH]c6c5)c4nc3CO)CC2)[C@@H]1N [Compound C15] | < 50 nM | < 100 nM
2 | C[C@@H]1OCC2(CCN(c3nc4cnn(-c5ccc6cnn(C)c6c5)c4nc3C(F)F)CC2)[C@@H]1N [Compound C16] | < 50 nM | –
3 | C[C@@H]1OCC2(CCN(c3nc4cnn(-c5ccc6nnn(C)c6c5)c4nc3CO)CC2)[C@@H]1N [Compound C17] | < 50 nM | < 100 nM
4 | CCn1ncc2ccc(-n3ncc4nc(N5CCC6(CC5)CO[C@@H](C)[C@H]6N)c(CO)nc43)cc21 [Compound C18] | < 50 nM | –
5 | Cc1nc(N2CCC3(CC2)CO[C@@H](C)[C@H]3N)c(CO)nc1Sc1ccnc(N)c1Cl [RMC-4630, reference compound] | < 50 nM | < 100 nM
6 | C[C@@H]1OCC2(CCN(c3nc4cnn(-c5ccnc(N)c5Cl)c4nc3CO)CC2)[C@@H]1N [WO2021148010A1 Example 5, reference compound] | 50 to 500 nM | 100 to 500 nM

Second part, the compound after the results:

Row | IC50 (full-length SHP2 protein) | IC50 (MV4-11 cells) | Compound
7 | < 50 nM | < 100 nM | C[C@@H]1OCC2(CCN(c3nc4cnn(-c5ccc6cnn(C)c6c5)c4nc3CO)CC2)[C@@H]1N [Compound C4]
8 | < 50 nM | < 100 nM | C[C@@H]1OCC2(CCN(c3nc4cnn(-c5cccc6c5ccn6C)c4nc3CO)CC2)[C@@H]1N [Compound C5]
9 | < 50 nM | < 100 nM | C[C@@H]1OCC2(CCN(c3nc4cnn(-c5ccc6nn(C)cc6c5Cl)c4nc3CO)CC2)[C@@H]1N [Compound C6]
10 | < 50 nM | < 100 nM | C[C@@H]1OCC2(CCN(c3nc4cnn(-c5ccc6c(cnn6C)c5)c4nc3CO)CC2)[C@@H]1N [Compound C11]
11 | < 50 nM | < 100 nM | C[C@@H]1OCC2(CCN(c3nc4cnn(-c5ccc6ccn(C)c6c5)c4nc3CO)CC2)[C@@H]1N [Compound C12]
12 | < 50 nM | – | C[C@@H]1OCC2(CCN(c3nc4cnn(-c5cccc6c5CCN6C)c4nc3CO)CC2)[C@@H]1N [Compound C13]
13 | < 50 nM | – | C[C@@H]1OCC2(CCN(c3nc4cnn(-c5ccc6cn(C)nc6c5)c4nc3CO)CC2)[C@@H]1N [Compound C14]
